Where a name gives a salt, the structure may show the parent alone. Read-outs that look alike come from different tables or passages of the source.
Columns and labels:
Type in all cases: biochemical
METTL1/WDR4 = METTL1/WDR4 (Homo sapiens, UniProt Q9UBP6); assay: METTL1 assay (3H-SAM flashplate scintillation)
Method: Assays were performed in a 25 μl-volume in 384-well V-bottom polypropylene microplates (Greiner Bio-One, cat. No. 781280) at ambient temperature. Optimized 1× assay buffer was 20 mM HEPES pH 7.5, 50 mM KCl, 250 μM MgCl2, 1 mM DTT, 0.01% Tween, 0.01% BSG, 0.004 U/μl RNAseOUT (cat. No. 10777019, ThermoFisher Scientific, Waltham, Mass.). For compound screening METTL1/WDR4 (final concentration, f.c.=6.25 nM) was added using a Multidrop Combi (ThermoFisher Scientific, Waltham, Mass.) and preincubated for 5 min. Reactions were started by adding 3′ biotinylated RNA ([…]-biotin) (f.c.=25 nM) and 3H-SAM (f.c.=60 nM) substrates. Reactions proceeded for 20 minutes and were quenched with excess non-radioactive SAM (f.c.=15 μM). The reactions were then transferred to streptavidin-coated flashplates and incubated for 2 hours at 25° C. Following two washing cycles with 0.1% Tween-20, the plates were sealed and read on a TopCount (PerkinElmer, Waltham, Mass.) plate-based scintillation counter. For determination of kinetic parameters, reaction times were optimized so that measurements were taken during the initial velocity phase of the reaction.

PRMT5-MEP50 = PRMT5-MEP50 (Homo sapiens, UniProt O14744); assay: PRMT5 assay (3H-SAM flashplate scintillation); details: PRMT5-MEP50 2.5 nM, histone H4 peptide 100 nM, 3H-SAM 250 nM, 60 min
Method: Assays were performed in a 25 μl-volume in 384-well V-bottom polypropylene microplates (Greiner Bio-One, cat. No. 781280) at ambient temperature. Optimized 1× assay buffer was 20 mM Tris-HCl pH 8.0, 1 mM DTT, […]. For compound screening PRMT5-MEP50 (final concentration, f.c.=2.5 nM) was added using a Multidrop Combi (ThermoFisher Scientific, Waltham, Mass.) and preincubated for 5 min. Reactions were started by adding 3′ biotinylated histone H4 peptide acetylated on serine 1 (Ac-[…]-Biotin) (f.c.=100 nM) and 3H-SAM (f.c.=250 nM) substrates. Reactions proceeded for 60 minutes and were quenched with excess non-radioactive SAM (f.c.=15 μM). The reactions were then transferred to streptavidin-coated flashplates and incubated for 2 hours at 25° C. Following two washing cycles with 0.1% Tween-20, the plates were sealed and read on a TopCount (PerkinElmer, Waltham, Mass.) plate-based scintillation counter. For determination of kinetic parameters, reaction times were optimized so that measurements were taken during the initial velocity phase of the reaction.

METTL3/METTL14 = METTL3/METTL14 (Homo sapiens, UniProt Q86U44); assay: METTL3-14 standard enzyme assay (3H-SAM flashplate scintillation); details: METTL3/METTL14 2.5 nM, RNA 100 nM, 3H-SAM 100 nM, 30 min
Method: METTL3-14 Standard Enzyme Assay
Assays were performed in a 25 μl-volume in 384-well V-bottom polypropylene microplates (Greiner Bio-One, cat. No. 781280) at ambient temperature. Optimized 1× assay buffer was 20 mM HEPES pH 7.5, 50 mM KCl, 250 μM MgCl2, 1 mM DTT, 0.01% Tween, 0.01% BSG, 0.004 U/μl RNAseOUT (cat. No. 10777019, ThermoFisher Scientific, Waltham, Mass.). For compound screening METTL3/METTL14 (final concentration, f.c.=2.5 nM) was added using a Multidrop Combi (ThermoFisher Scientific, Waltham, Mass.) and preincubated for 5 min. Reactions were started by adding 3′ biotinylated RNA (UCUGGACUAAA-biotin) (f.c.=100 nM) and 3H-SAM (f.c.=100 nM) substrates. Reactions proceeded for 30 minutes and were quenched with excess non-radioactive SAM (f.c.=15 μM). The reactions were then transferred to streptavidin-coated flashplates and incubated for 2 hours at 25° C. Following two washing cycles with 0.1% Tween-20, the plates were sealed and read on a TopCount (PerkinElmer, Waltham, Mass.) plate-based scintillation counter. For determination of kinetic parameters, reaction times were optimized so that measurements were taken during the initial velocity phase of the reaction.

[1] = METTL1/WDR4 6.25 nM, RNA 25 nM, 3H-SAM 60 nM, 20 min, read-out: METTL1 IC50

Sequence of PRMT5-MEP50 (O14744 whole entry): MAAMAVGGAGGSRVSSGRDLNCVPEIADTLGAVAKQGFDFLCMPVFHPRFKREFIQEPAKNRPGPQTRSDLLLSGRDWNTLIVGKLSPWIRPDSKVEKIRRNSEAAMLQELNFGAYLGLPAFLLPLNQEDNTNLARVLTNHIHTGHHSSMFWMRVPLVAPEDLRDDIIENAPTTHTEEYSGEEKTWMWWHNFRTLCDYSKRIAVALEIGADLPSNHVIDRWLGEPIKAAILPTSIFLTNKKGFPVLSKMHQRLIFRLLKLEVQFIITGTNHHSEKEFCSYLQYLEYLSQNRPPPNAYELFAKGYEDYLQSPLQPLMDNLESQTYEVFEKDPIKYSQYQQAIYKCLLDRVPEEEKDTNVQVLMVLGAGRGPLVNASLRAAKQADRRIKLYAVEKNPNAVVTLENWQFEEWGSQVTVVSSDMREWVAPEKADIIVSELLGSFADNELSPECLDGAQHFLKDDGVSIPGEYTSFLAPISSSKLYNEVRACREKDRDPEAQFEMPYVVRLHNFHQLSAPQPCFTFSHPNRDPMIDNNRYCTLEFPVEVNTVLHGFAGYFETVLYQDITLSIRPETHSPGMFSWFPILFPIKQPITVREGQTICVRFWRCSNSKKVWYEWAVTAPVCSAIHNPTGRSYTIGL
Sequence of PRMT5-MEP50 (Q9BQA1 whole entry partner): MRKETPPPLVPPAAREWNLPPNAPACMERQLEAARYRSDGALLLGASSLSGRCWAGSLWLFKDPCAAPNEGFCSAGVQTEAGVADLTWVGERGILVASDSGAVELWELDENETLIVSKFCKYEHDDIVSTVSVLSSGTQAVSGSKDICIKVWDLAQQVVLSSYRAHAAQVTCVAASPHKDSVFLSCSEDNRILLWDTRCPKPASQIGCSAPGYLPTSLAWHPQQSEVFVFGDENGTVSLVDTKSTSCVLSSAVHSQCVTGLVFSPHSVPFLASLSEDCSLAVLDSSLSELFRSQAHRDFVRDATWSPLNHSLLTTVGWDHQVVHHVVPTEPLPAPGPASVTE
Sequence of METTL3/METTL14 (Q86U44 whole entry, species assumed): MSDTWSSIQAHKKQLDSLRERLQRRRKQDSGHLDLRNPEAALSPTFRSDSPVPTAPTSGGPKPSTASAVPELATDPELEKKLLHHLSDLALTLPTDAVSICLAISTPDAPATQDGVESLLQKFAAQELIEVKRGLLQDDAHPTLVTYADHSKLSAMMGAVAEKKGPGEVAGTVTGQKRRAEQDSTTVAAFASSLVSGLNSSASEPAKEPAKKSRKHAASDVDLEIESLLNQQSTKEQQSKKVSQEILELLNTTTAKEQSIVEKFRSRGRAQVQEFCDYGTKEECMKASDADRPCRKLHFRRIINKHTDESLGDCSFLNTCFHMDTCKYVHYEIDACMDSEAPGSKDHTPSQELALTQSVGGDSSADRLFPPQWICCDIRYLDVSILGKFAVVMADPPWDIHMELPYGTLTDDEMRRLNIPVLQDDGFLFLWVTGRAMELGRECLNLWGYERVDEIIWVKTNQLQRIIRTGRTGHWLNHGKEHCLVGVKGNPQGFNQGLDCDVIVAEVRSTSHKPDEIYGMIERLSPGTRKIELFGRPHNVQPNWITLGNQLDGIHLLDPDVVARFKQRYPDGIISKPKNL
Sequence of METTL3/METTL14 (Q9HCE5 whole entry partner, species assumed): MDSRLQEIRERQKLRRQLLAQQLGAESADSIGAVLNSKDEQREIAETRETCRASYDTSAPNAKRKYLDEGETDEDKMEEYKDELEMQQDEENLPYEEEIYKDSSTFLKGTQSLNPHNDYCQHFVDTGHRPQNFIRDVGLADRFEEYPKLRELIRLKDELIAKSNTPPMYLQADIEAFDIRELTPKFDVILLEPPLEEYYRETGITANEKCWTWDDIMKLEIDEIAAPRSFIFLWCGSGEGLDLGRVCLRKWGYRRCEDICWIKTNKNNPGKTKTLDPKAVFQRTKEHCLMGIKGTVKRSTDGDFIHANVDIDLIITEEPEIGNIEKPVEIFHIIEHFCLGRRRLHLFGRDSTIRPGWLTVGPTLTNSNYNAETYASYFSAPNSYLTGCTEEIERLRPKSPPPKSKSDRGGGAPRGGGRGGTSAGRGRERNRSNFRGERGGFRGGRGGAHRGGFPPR
Sequence of METTL1/WDR4 (Q9UBP6 whole entry, species assumed): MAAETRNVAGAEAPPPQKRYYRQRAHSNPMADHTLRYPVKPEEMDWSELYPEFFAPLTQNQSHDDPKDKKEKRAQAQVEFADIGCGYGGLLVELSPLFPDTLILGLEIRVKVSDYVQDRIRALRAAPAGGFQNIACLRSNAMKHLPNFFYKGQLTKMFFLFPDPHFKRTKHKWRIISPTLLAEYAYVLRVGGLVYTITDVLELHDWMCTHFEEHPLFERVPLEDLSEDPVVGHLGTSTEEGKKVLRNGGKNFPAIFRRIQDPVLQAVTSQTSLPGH
Sequence of METTL1/WDR4 (P57081 whole entry partner, species assumed): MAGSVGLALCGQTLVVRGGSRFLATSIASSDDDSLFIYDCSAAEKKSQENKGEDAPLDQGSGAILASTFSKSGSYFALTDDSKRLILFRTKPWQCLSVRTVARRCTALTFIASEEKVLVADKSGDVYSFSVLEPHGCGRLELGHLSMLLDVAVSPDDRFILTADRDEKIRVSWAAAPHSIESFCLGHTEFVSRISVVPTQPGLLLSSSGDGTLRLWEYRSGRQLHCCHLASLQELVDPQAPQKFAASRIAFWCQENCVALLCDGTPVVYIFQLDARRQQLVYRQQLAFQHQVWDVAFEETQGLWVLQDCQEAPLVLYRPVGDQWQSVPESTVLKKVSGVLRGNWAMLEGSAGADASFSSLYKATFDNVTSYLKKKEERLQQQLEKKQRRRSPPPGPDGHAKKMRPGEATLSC

SMILES | IC50 (METTL3/METTL14) | IC50 (METTL1/WDR4; [1]) | IC50 (PRMT5-MEP50) | IC50 (METTL1/WDR4)
CNc1ccc2ccc(OC(C)c3cncc(-n4ccc5c(N)ncnc54)c3)cc2n1 (stereo not drawn) [Compound I-4] |  | > 1 µM | > 1 µM | 
CNc1ccc2ccc(OCc3cc(C(N)=O)cc(-n4cc(Cl)c5c(N)ncnc54)c3)cc2n1 [Compound I-21] | 0.1 to 1 µM | > 1 µM | > 1 µM | 
Nc1ncnc2c1c(C1CCCC1)cn2-c1cncc(COc2ccc3ccc(N4CCC4)nc3c2)c1 [Compound I-94] | < 0.01 µM | > 1 µM | > 1 µM | 
CN(Cc1cncc(-n2cc(-c3ccn(C)n3)c3c(N)ncnc32)c1)CC1CC1 [Compound I-100] | > 1 µM | > 1 µM | > 1 µM | 
CNc1ccc2ccc(OCc3cc(-n4ccc5c(N)ncnc54)n[nH]3)cc2n1 [Compound I-2] |  |  | > 1 µM | > 1 µM
Cc1cc(NCCN(C)CCCc2ccccc2)c2ccc(OCc3cncc(-n4ccc5c(N)ncnc54)c3)cc2n1 [Compound I-98] | 0.01 to 0.1 µM | > 1 µM | > 1 µM | 
CNc1ccc2ccc(OCc3ncc(-n4cc(Cl)c5c(N)ncnc54)s3)cc2n1 [Compound I-24] | > 1 µM |  | > 1 µM | > 1 µM
Nc1ccc2ccc(OCc3cncc(-n4ccc5c(N)ncnc54)c3)cc2n1 [Compound I-240] | 0.01 to 0.1 µM | > 1 µM | > 1 µM | 
CC(C)c1nc(N)c2ccc(OCc3cncc(-n4ccc5c(N)ncnc54)c3)cc2n1 [Compound I-91] | 0.01 to 0.1 µM | > 1 µM | > 1 µM | 
CNc1ccc2cc(F)c(OCc3cncc(-n4cc(C5CCCC5)c5c(N)ncnc54)c3)cc2n1 [Compound I-5] |  | > 1 µM | > 1 µM | 
CCc1cc(NCCN(C)C)c2ccc(OCc3cncc(-n4ccc5c(N)ncnc54)n3)cc2n1 [Compound I-89] | < 0.01 µM | > 1 µM | > 1 µM | 
Nc1ncnc2c1c(Cl)cn2-c1csc(COc2ccc3ccc(N4CCCC4)nc3c2)n1 [Compound I-23, 5-chloro-7-(2-(((2-(pyrrolidin-1-yl)quinolin-7-yl)oxy)methyl)thiazol-4-yl)-7H-pyrrolo[2,3-d]pyrimidin-4-amine hydrochloride] | > 1 µM |  | > 1 µM | > 1 µM
CC(C)(C)c1cc(N)c2ccc(OCc3cncc(-n4ccc5c(N)ncnc54)c3)cc2n1 [Compound I-93] | < 0.01 µM | > 1 µM | > 1 µM | 
CNc1ccc2ccc(OCc3nc(-n4cc(Cl)c5c(N)ncnc54)cs3)cc2n1 [Compound I-37] | 0.01 to 0.1 µM | > 1 µM | > 1 µM | 
CCc1nc(N)c2ccn(-c3cncc(COc4ccc5ccc(NC)nc5c4)c3)c2n1 [Compound I-8] | < 0.01 µM | > 1 µM | > 1 µM | 
CCCC(=O)c1cn(-c2cncc(COc3ccc4ccc(NC)nc4c3)c2)c2ncnc(N)c12 [Compound I-96] | 0.01 to 0.1 µM | > 1 µM | > 1 µM | 
CNc1ccc2ccc(OCc3cncc(-n4cc(C5CCC(F)(F)CC5)c5c(N)ncnc54)c3)cc2n1 [Compound I-3] | 0.01 to 0.1 µM | > 1 µM | > 1 µM | 
CNc1ccc2ccc(OCc3nc(-n4ccc5c(N)ncnc54)cs3)cc2n1 [Compound I-19] | 0.01 to 0.1 µM |  | > 1 µM | > 1 µM
Cc1cc(NCCN(C)CCCCc2ccccc2)c2ccc(OCc3cncc(-n4ccc5c(N)ncnc54)c3)cc2n1 [Compound I-102] | 0.01 to 0.1 µM |  | > 1 µM | 

Now from value to compound, other results behind:

IC50 (METTL3/METTL14) | SMILES | IC50 (METTL1/WDR4; [1]) | IC50 (PRMT5-MEP50) | IC50 (METTL1/WDR4)
> 1 µM | Cn1ccc(-c2cn(-c3cncc(CNC(=O)Nc4cccc(N5CCC5)n4)c3)c3ncnc(N)c23)n1 [Compound I-225, 1-({5-[4-amino-5-(1-methyl-1H-pyrazol-3-yl)-7H-pyrrolo[2,3-d]pyrimidin-7-yl]pyridin-3-yl}methyl)-3-[6-(azetidin-1-yl)pyridin-2-yl]urea] |  | > 1 µM | 
> 1 µM | COc1ccccc1-c1cn(-c2cncc(COc3ccc4ccc(N5CCC5)nc4c3)c2)c2ncncc12 [Compound I-184] |  | > 1 µM | 
0.01 to 0.1 µM | CCc1cc(N(C)C2CC2)c2ccc(OCc3cncc(-n4cc([C@@H]5CCCO5)c5c(N)ncnc54)n3)cc2n1 [Compound I-174] |  | > 1 µM | 
> 1 µM | CN(C)C(=O)c1ccc(OCc2cncc(-n3cc(-c4ccn(C)n4)c4c(N)ncnc43)c2)cc1N [Compound I-177] |  | > 1 µM | 
0.1 to 1 µM | Cn1ccc(-c2cn(-c3cncc(COc4ccc5ccc(N6CCC(F)(F)CC6)nc5c4)c3)c3ncnc(N)c23)n1 [Compound I-197] |  | > 1 µM | 
> 1 µM | CC1COc2ccc(OCc3cncc(-n4cc(-c5ccn(C)n5)c5c(N)ncnc54)c3)cc2N1 (stereo not drawn) [Compound I-171] |  | > 1 µM | 
0.1 to 1 µM | Cn1ccc(-c2cn(-c3cncc(COc4ccc5ccc(C6CCOCC6)nc5c4)c3)c3ncnc(N)c23)n1 [Compound I-189] |  | > 1 µM | 
0.01 to 0.1 µM | Cn1ccc(-c2cn(-c3cncc(COc4ccc5ccc(N6CCOCC6)nc5c4)c3)c3ncnc(N)c23)n1 [Compound I-196] |  | 0.1 to 1 µM | 
0.01 to 0.1 µM | Cc1cc(NCCN(C)CCCCCc2ccccc2)c2ccc(OCc3cncc(-n4ccc5c(N)ncnc54)c3)cc2n1 [Compound I-103] |  | > 1 µM | 
0.1 to 1 µM | C[S+]([O-])c1cn(-c2cncc(COc3ccc4ccc(N5CCC5)nc4c3)c2)c2ncnc(N)c12 (stereo not drawn) [Compound I-173] |  | > 1 µM | 
0.1 to 1 µM | Cn1ccc(-c2cn(-c3cncc(COc4ccc5ccc(N6CC7(CCC7)C6)nc5c4)c3)c3ncnc(N)c23)n1 [Compound I-194] |  | > 1 µM | 
> 1 µM | Cn1ccc(-c2cn(-c3cncc(COc4ccc5cnc(N6CCC6)nc5c4)c3)c3ncnc(N)c23)n1 [Compound I-183] |  | > 1 µM | 
> 1 µM | Cn1ccc(-c2cn(-c3cncc(COC(=O)Nc4cccc(N5CCC5)n4)c3)c3ncnc(N)c23)n1 [Compound I-224, {5-[4-amino-5-(1-methyl-1H-pyrazol-3-yl)-7H-pyrrolo[2,3-d]pyrimidin-7-yl]pyridin-3-yl}methyl N-[6-(azetidin-1-yl)pyridin-2-yl]carbamate] |  | > 1 µM | 
< 0.01 µM | Nc1ncnc2c(-c3cncc(COc4ccc5ccc(N6CCC6)nc5c4)c3)c[nH]c12 [Compound I-190] |  | > 1 µM | 
0.1 to 1 µM | Cn1ccc(-c2cn(-c3cncc(COc4ccc(C(=O)NC5CCOCC5)c(N)c4)c3)c3ncnc(N)c23)n1 [Compound I-187] |  | > 1 µM | 
> 1 µM | Cn1ccc(-c2cn(-c3cncc(COc4ccc(C(=O)N5CCC(F)(F)CC5)c(N)c4)c3)c3ncnc(N)c23)n1 [Compound I-186] |  | > 1 µM | 
> 1 µM | Cn1ccc(-c2cn(-c3cncc(CS(=O)(=O)c4ccc5ccc(N6CCC6)nc5c4)c3)c3ncnc(N)c23)n1 [Compound I-220, 7-[5-({[2-(azetidin-1-yl)quinolin-7-yl]sulfonyl}methyl)pyridin-3-yl]-5-(1-methyl-1H-pyrazol-3-yl)-7H-pyrrolo[2,3-d]pyrimidin-4-amine] |  | > 1 µM | 

Reference: US20220372040A1, “METTL3 MODULATORS” (Accent Therapeutics, Inc., priority 2020, published 2022)
